Measured values from patent publication US20030171398A1, “Food compositions for reducing insulin resistance” (Unilever Patent Holdings BV, priority 2001, published 2003).

Key:
[1] = tested on: Human skeletal muscle cells (SMCs); assay: Glucose uptake assay in human skeletal muscle cells ([3H]2-deoxyglucose); assay type: cell-based
Experimental: Human skeletal muscle cells (SMCs) were obtained from TCS 2000 Ltd. Cells were seeded into 12-well plates at a density of 3×10^4 cells/well and then grown and differentiated as instructed by TCS. Differentiated human SMCs were incubated, for 32 hours at 37° C./5% CO2, in differentiation media (supplied by TCS) supplemented with an appropriate amount of agent or vehicle. Media was then changed to serum free media (MEM-alpha media, 2 mM glutamine, 100 iu/ml penicillin and 100 μg/ml streptomycin), supplemented as before, and the cells incubated for a further 16 hours.
Cells were then washed 3×with Krebs Ringer Phosphate (KRP) buffer [136 mM NaCl, 4.7 mM KCl, 1.25 mM CaCl2, 1.25 mM MgSO4, 10 mM sodium phosphate buffer, pH 7.4] and incubated in KRP (0.5 ml/well) for 30 minutes at 37° C./5% CO2. After 30 minutes incubation the glucose uptake assay was initiated by addition of 25 μl KRP containing 5 μCi [^3H]2-deoxyglucose and 1 mM deoxyglucose. After 10 minutes the reaction was terminated by washing the cells 3×with ice-cold PBS. Cells were then solublised with 125 μl/well of 1% Triton X-100 for 20 minutes at 37° C. Radioactive incorporation was measured by scintillation counting. 100 μl of each sample was analysed.

[2] = biological target: T1, human PPARγ1 (Homo sapiens, UniProt P37231); assay: PPARgamma reporter gene assay (luciferase) in transfected cos-7 cells; assay type: cell-based
T1 construct: expressed in transfected cells; host or cells: cos-7 cells (ECACC No. 87021302)
T1 sequence (P37231 1-477 isoform P37231-2): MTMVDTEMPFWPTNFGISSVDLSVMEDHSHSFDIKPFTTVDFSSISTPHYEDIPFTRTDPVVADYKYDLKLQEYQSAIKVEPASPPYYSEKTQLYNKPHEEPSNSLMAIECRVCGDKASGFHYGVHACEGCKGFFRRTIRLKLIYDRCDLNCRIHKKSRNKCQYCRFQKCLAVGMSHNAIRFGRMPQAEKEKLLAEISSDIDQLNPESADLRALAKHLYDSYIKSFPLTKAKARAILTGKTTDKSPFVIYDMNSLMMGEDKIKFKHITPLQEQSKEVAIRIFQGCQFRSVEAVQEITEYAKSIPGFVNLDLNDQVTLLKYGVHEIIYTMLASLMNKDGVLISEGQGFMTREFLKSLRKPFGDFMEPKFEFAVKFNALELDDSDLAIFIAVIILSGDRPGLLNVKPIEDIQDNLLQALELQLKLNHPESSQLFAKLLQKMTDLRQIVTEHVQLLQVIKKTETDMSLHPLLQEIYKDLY
T1 sequence (P19793 1-462 partner): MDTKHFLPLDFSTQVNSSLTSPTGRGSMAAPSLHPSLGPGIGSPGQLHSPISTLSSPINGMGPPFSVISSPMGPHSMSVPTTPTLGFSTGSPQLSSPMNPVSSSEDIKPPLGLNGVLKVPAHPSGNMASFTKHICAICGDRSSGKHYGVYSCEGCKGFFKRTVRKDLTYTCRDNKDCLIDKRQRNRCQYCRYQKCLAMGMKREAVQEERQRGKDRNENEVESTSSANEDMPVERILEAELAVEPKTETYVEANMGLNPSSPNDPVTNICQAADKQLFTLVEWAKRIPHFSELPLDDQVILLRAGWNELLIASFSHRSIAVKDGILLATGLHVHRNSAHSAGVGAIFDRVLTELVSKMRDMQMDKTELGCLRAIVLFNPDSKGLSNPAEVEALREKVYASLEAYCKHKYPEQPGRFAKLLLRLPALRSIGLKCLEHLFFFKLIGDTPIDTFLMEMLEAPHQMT
Experimental: PPARgamma receptor activity is determined by a suitable reporter gene assay. Preferably the reporter gene assay used comprises the transcription induction of a luciferase gene. Levels of firefly luciferase (normalised against the renilla luciferase control) provide a measure of reporter gene activity which in turn reflects the level of activation.
This assay is based on that described by Kliewer et al (Nature 358 771-774 1992). In brief, cos-7 cells (ECACC No. 87021302) were seeded in 24-well plates at a density of 0.325×10^5 cells/well. Cells were grown overnight at 37° C./5% CO2 in DMEM containing 10% FCS, 2 mM L-glutamine, 100 iu/ml penicillin and 100 µg/ml streptomycin. Cells were washed with transfection media (DMEM containing 2 mM L-glutamine) then transiently transfected with 4 plasmids: a PPAR-responsive firefly luciferase reporter gene (pPPRE3TK-luc); mammalian expression plasmids (pcDNA3/hPPARγ1 and pRSV/hRXRα) containing human PPARγ1 and RXRα cDNAs respectively and a control plasmid (PRLTK, Promega) which constitutatively expresses the renilla luciferase gene. Transfection was performed using Lipofectamine (Gibco Brl) as directed by the manufacturers. Transfected cells were incubated for 6 h at 37° C./5% CO2 and then for a further 46 hours in the presence or absence of ligand. After 46 hours cell lysates were prepared and the level of firefly and renilla luciferase determined using the Dual luciferase assay system (Promega) and a MLX microtitre plate luminometer (Dynex). The level of firefly luciferase (normalised against the renilla luciferase control) provides a measure of reporter gene activity. This in turn reflect the level of PPARγ activation.
A double-stranded PPAR-binding site was prepared using the ‘Klenow fill-in’ technique. A 113 bp oligonucleotide (PPRE1/3) containing a triplet of PPREs and appropriate restriction endonuclease sites was designed. PPRE1/3 and a 20 bp oligonucleotide (PPRE1/3R) complementary to the 3′ region of PPRE1/3 were synthesised.
In a final volume of 20 μl 2 μg of PPRE1/3R was annealed to 2 μg of PPRE1/3 by boiling for 5 minutes and then cooling slowly to room temperature. Annealed PPRE1/3R was used to prime second-strand DNA synthesis. A 30 μl reaction mix containing 20 μl annealed DNA, 1.5 μl 2 mM dNTPs, 1×Klenow Buffer and 5 units DNA Polymerase I (Klenow fragment) was incubated for 1 hour at 37° C. and then 10 minutes at 75° C. A 5 μl sample of the synthesised product was analysed on a 3% agarose gel. The remaining product was purified by ethanol precipitation and resuspended in sterile water. The double-stranded PPAR-binding site (insert) was digested with MluI and BgllI for 1 hour at 37° C. and then purified by ethanol precipitation. 1 μg of the vector pNF-κB-luc (Clontech) was digested with MluI and BgllI for 1 hour at 37° C. and then analysed on a 1% agarose gel Digested DNA was purified from the gel using a Qiaquick Gel Extraction Kit (Qiagen). Digested vector and insert DNA were incubated for 4 hours at room temperature in a volume of 15 μl containing 1×ligase buffer and 5 units T4 DNA ligase. The full ligation reaction was used to transform competant E.coli JM109 cells (Promega).

[3] = 1.25 μg/ml, purified components, Table 8
[4] = 2.5 μg/ml, purified components, Table 8
[5] = 5 μg/ml, purified components, Table 8

| SMILES | [3H] 2-deoxyglucose uptake (Fold-induction relative to vehicle) Mean ([1]; 2.5 uM) [Fold-induction] | [3H] 2-deoxyglucose uptake (Fold-induction relative to vehicle) Mean ([1]; 5 uM) [Fold-induction] | Activation of PPARgamma in the reporter gene assay (in words) [2] | Reporter gene activity (Fold-induction relative to the vehicle) Mean ([2]; 5 μg/ml, Table 9) [Fold-induction] | Reporter gene activity (Fold-induction relative to the vehicle) Mean [2, 3] [Fold-induction] | Reporter gene activity (Fold-induction relative to the vehicle) Mean [2, 4] [Fold-induction] | Reporter gene activity (Fold-induction relative to the vehicle) Mean [2, 5] [Fold-induction] |
| --- | --- | --- | --- | --- | --- | --- | --- |
| CC1(COc2ccc(CC3SC(=O)NC3=O)cc2)CCCCC1 (centres unmarked) [Ciglitizone] | 1.3 | 3.3 | – | – | – | – | – |
| C/C=C1\C(=O)C[C@H]2[C@@H]3CCC4=CC(=O)CC[C@]4(C)[C@H]3CC[C@]12C [Z-guggulsterone, reference compound] | – | – | neither the E-nor the Z-form of guggulsterone can activate PPARgamma | 0.5 | – | – | – |
| C/C=C1/C(=O)C[C@H]2[C@@H]3CCC4=CC(=O)CC[C@]4(C)[C@H]3CC[C@]12C [E-guggulsterone, reference compound] | – | – | neither the E-nor the Z-form of guggulsterone can activate PPARgamma | 0.4 | – | – | – |
| C/C(=C\CC/C(C)=C/CCC1[C@](C)(O)CC[C@H]2C(C)(C)C(=O)CC[C@]12C)CC/C=C(\C)C(=O)O (stereo partly drawn) [Commipheric acid, 13-(decahydro-2-hydroxy-2,5,5,8a-tetramethyl-6-oxo-1-naphthalenyl)-2,6,10-trimethyl-, [1R-[1α(2E,6E,10E),2β,4aβ,8aα]]-2,6,10-tridecatrienoic acid] | – | – | able to activate PPARgamma | – | 2.56 | 3.40 | 8.01 |
| C/C(=C\CC/C(C)=C/CC/C(C)=C/CCC1C(C)(O)CCC2C(C)(C)C(O)CCC12C)CO [Myrrhanol A, Decahydro-5-[(3E,7E,11E)-13-hydroxy-4,8,12-trimethyl-3,7,11-tridecatrienyl]-1,1,4a,6-tetramethyl-, (2S,4aS,5R,6R,8aS)-2,6-naphthalenediol] | – | – | activate PPARgamma to a lesser degree | – | 1.14 | 1.74 | 3.87 |
| C/C(=C\CC/C(C)=C/CC/C(C)=C/CC[C@@H]1[C@@]2(C)CCC(=O)C(C)(C)[C@@H]2CC[C@@]1(C)O)CO [Commipherol, Octahydro-6-hydroxy-5-(13-hydroxy-4,8,12-trimethyl-3,7,11-tridecatrienyl)-1,1,4a,6-tetramethyl-, [4aS-[4aα,5α(3E,7E,11E),6β,8aβ]]-2(1H)-naphthalenone] | – | – | activate PPARgamma to a lesser degree | – | 3.41 | 4.97 | – |
